US20050165047A1, “Crystalline fumarate salts of 1-azabicyclo[2.2.2]oct substituted furo[2,3-c]pyridinyl carboxamide and compositions and preparations thereof” (Pfizer Inc, priority 2002, published 2005)
One block for each compound: values may come before it.

Assay: Moisture sorption by DMSG on a controlled atmosphere microbalance
Assay type: physicochemical
Details: 25° C.
Description: The sorption of water by the solid lattice at a given relative humidity (RH) was measured by DMSG on a controlled atmosphere microbalance. Scans were carried out at 25° C. from 36% to 0% RH then ramped to 90% RH, and back down to 0% RH with a step size of 3% RH. A sample size of 8 to 14 mg was used. At each step, the balance was considered equilibrated when the mass change was less than 0.01 mg for five consecutive scans. There were 120 seconds between each scan.
Table 3 provides the moisture sorption data at 25° C. for Crystal Forms Ia and Ib of N-[1-azabicyclo[2.2.2]oct-3-yl]furo[2,3-c]pyridine-5-carboxamide.

- % dMass (RH 0%, 36-0% RH): 0.1164%
- % dMass (RH 0.24%, 36-0% RH): 0.1225%
- % dMass (RH 2.62%, 0-90% RH): 0.1479%
- % dMass (RH 3.16%, 36-0% RH): 0.1628%
- % dMass (RH 5.84%, 0-90% RH): 0.1768%
- % dMass (RH 6.36%, 36-0% RH): 0.1899%
- % dMass (RH 8.98%, 0-90% RH): 0.2048%
- % dMass (RH 9.74%, 36-0% RH): 0.2197%
- % dMass (RH 12.2%, 0-90% RH): 0.2293%
- % dMass (RH 12.78%, 36-0% RH): 0.2451%
- % dMass (RH 15.34%, 0-90% RH): 0.2547%
- % dMass (RH 15.78%, 36-0% RH): 0.2678%
- % dMass (RH 18.46%, 0-90% RH): 0.281%
- % dMass (RH 18.8%, 36-0% RH): 0.2932%
- % dMass (RH 21.42%, 0-90% RH): 0.3037%
- % dMass (RH 21.88%, 36-0% RH): 0.3195%
- % dMass (RH 24.66%, 0-90% RH): 0.3335%
- % dMass (RH 25.1%, 36-0% RH): 0.3466%
- % dMass (RH 27.74%, 0-90% RH): 0.3606%
- % dMass (RH 28.16%, 36-0% RH): 0.3772%
- % dMass (RH 30.82%, 0-90% RH): 0.3921%
- % dMass (RH 33.92%, 0-90% RH): 0.4245%
- % dMass (RH 36.96%, 0-90% RH): 0.4586%
- % dMass (RH 39.9%, 0-90% RH): 0.491%
- % dMass (RH 43.18%, 0-90% RH): 0.5348%
- % dMass (RH 46.14%, 0-90% RH): 0.5768%
- % dMass (RH 49.16%, 0-90% RH): 0.6302%
- % dMass (RH 52.12%, 0-90% RH): 0.6871%
- % dMass (RH 55.1%, 0-90% RH): 0.7501%
- % dMass (RH 58.08%, 0-90% RH): 0.8219%
- % dMass (RH 61.08%, 0-90% RH): 0.9068%
- % dMass (RH 64.04%, 0-90% RH): 1.002%
- % dMass (RH 67.02%, 0-90% RH): 1.124%
- % dMass (RH 68.62%, 90-0% RH): 26.01%
- % dMass (RH 70%, 0-90% RH): 1.281%
- % dMass (RH 71.48%, 90-0% RH): 26.27%
- % dMass (RH 72.9%, 0-90% RH): 1.505%
- % dMass (RH 74.3%, 90-0% RH): 26.58%
- % dMass (RH 75.9%, 0-90% RH): 1.925%
- % dMass (RH 77.1%, 90-0% RH): 26.92%
- % dMass (RH 79.2%, 0-90% RH): 26.93%
- % dMass (RH 79.88%, 90-0% RH): 27.36%
- % dMass (RH 82%, 0-90% RH): 27.4%
- % dMass (RH 82.5%, 90-0% RH): 28%
- % dMass (RH 85.04%, 0-90% RH): 28.18%
- % dMass (RH 85.12%, 90-0% RH): 30.2%
- % dMass (RH 87.82%, 0-90% RH): 30.29%
- % dMass (RH 87.9%, 90-0% RH): 32.21%
- % dMass (RH 90.7%, 0-90% RH): 38.78%
- % dMass (RH 90.7%, 90-0% RH): 38.8%
SMILES: O=C(N[C@H]1CN2CCC1CC2)c1cc2ccoc2cn1 [Crystal Form Ib, N-[(3R)-1-azabicyclo[2.2.2]oct-3-yl]furo[2,3-c]pyridine-5-carboxamide]

- % dMass (RH 0%, 0-90% RH): 0.006227%
- % dMass (RH 0%, 36-0% RH): 0.008896%
- % dMass (RH 0.1%, 36-0% RH): 0.01245%
- % dMass (RH 0.36%, 36-0% RH): 0.01156%
- % dMass (RH 1.3%, 0-90% RH): 0.01512%
- % dMass (RH 1.6%, 36-0% RH): 0.02224%
- % dMass (RH 4.3%, 0-90% RH): 0.0258%
- % dMass (RH 4.74%, 36-0% RH): 0.0338%
- % dMass (RH 7.1%, 0-90% RH): 0.03736%
- % dMass (RH 7.98%, 36-0% RH): 0.0427%
- % dMass (RH 10.1%, 0-90% RH): 0.04448%
- % dMass (RH 10.8%, 36-0% RH): 0.04893%
- % dMass (RH 13.14%, 0-90% RH): 0.05249%
- % dMass (RH 13.96%, 36-0% RH): 0.05515%
- % dMass (RH 16.18%, 0-90% RH): 0.05782%
- % dMass (RH 17.1%, 36-0% RH): 0.06227%
- % dMass (RH 19.28%, 0-90% RH): 0.06227%
- % dMass (RH 19.94%, 36-0% RH): 0.07028%
- % dMass (RH 22.56%, 0-90% RH): 0.07295%
- % dMass (RH 23.18%, 36-0% RH): 0.07739%
- % dMass (RH 25.72%, 0-90% RH): 0.07828%
- % dMass (RH 28.68%, 0-90% RH): 0.08362%
- % dMass (RH 31.96%, 0-90% RH): 0.09341%
- % dMass (RH 35.18%, 0-90% RH): 0.1005%
- % dMass (RH 38.16%, 0-90% RH): 0.1076%
- % dMass (RH 41.24%, 0-90% RH): 0.1139%
- % dMass (RH 44.36%, 0-90% RH): 0.1165%
- % dMass (RH 47.56%, 0-90% RH): 0.1237%
- % dMass (RH 50.7%, 0-90% RH): 0.1334%
- % dMass (RH 53.86%, 0-90% RH): 0.1423%
- % dMass (RH 56.98%, 0-90% RH): 0.153%
- % dMass (RH 60.24%, 0-90% RH): 0.1646%
- % dMass (RH 63.9%, 0-90% RH): 0.1841%
- % dMass (RH 66.22%, 90-0% RH): 0.2046%
- % dMass (RH 66.66%, 0-90% RH): 0.2028%
- % dMass (RH 69.18%, 90-0% RH): 0.234%
- % dMass (RH 69.48%, 0-90% RH): 0.2251%
- % dMass (RH 72.34%, 90-0% RH): 0.3194%
- % dMass (RH 72.76%, 0-90% RH): 0.2562%
- % dMass (RH 75.26%, 90-0% RH): 0.3629%
- % dMass (RH 75.68%, 0-90% RH): 0.2936%
- % dMass (RH 77.96%, 90-0% RH): 0.4074%
- % dMass (RH 78.42%, 0-90% RH): 0.3371%
- % dMass (RH 80.84%, 90-0% RH): 0.4706%
- % dMass (RH 81.9%, 0-90% RH): 0.4163%
- % dMass (RH 83.48%, 90-0% RH): 0.5569%
- % dMass (RH 85.3%, 0-90% RH): 0.6218%
- % dMass (RH 85.94%, 90-0% RH): 0.693%
- % dMass (RH 88.38%, 0-90% RH): 0.9643%
- % dMass (RH 88.42%, 90-0% RH): 0.9723%
- hygroscopicity compared with Crystal Form Ib (above 74% relative humidity (RH)): less hygroscopic
SMILES: O=C(N[C@H]1CN2CCC1CC2)c1cc2ccoc2cn1 [Crystal Form Ia, N-[(3R)-1-azabicyclo[2.2.2]oct-3-yl]furo[2,3-c]pyridine-5-carboxamide]
